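Tested at 5 concentrations; 48 h exposure; 96-well plates; endpoints linearly interpolated, else capped at highest concentration. The concentration for 50% growth inhibition is given as GI50.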 Activity calls are given as the source filed them. Cut-off read from the data, not from the text of the source: active = GI50 up to about 1.1 µM and inactive = higher.
Tests used:
Assay in all cases: NCI-60 cell line screen, 48 h
HCC 2998 = test system: HCC 2998
HCT-116 = test system: HCT-116
HT-29 = test system: HT-29
K562 = test system: K562
KM-20L2 = test system: KM-20L2
KM12 = test system: KM12
LOX IMVI = test system: LOX IMVI
OVCAR-5 = test system: OVCAR-5
SF-539 = test system: SF-539
SK-MEL-28 = test system: SK-MEL-28
SK-MEL-2 = test system: SK-MEL-2
SR = test system: SR
U-251 = test system: U-251
UACC-257 = test system: UACC-257
UACC-62 = test system: UACC-62
UO-31 = test system: UO-31

Structure (SMILES) | GI50 (HCC 2998) | GI50 (HCT-116) | GI50 (HT-29) | GI50 (K562) | GI50 (KM-20L2) | GI50 (KM12) | GI50 (LOX IMVI) | GI50 (OVCAR-5) | GI50 (SF-539) | GI50 (SK-MEL-28) | GI50 (SK-MEL-2) | GI50 (SR) | GI50 (U-251) | GI50 (UACC-257) | GI50 (UACC-62) | GI50 (UO-31)
CC(C)(c1ccccc1)c1ccc(OC#N)cc1 | > 77.6 µM (inactive) | 34.4 µM (inactive) | > 70.3 µM (inactive) | 37.8 µM (inactive) | > 60.3 µM (inactive) | > 75 µM (inactive) | > 41 µM (inactive) | > 100 µM (inactive) | 38.1 µM (inactive) | > 70.5 µM (inactive) | > 100 µM (inactive) | 19.2 µM (inactive) | 47.2 µM (inactive) | > 100 µM (inactive) | > 95.1 µM (inactive) | 49.1 µM (inactive)
COC(=O)c1cc(-c2ccc(OC)c(OC)c2)oc1-c1ccc(OC)c(OC)c1 | 81.8 µM (inactive) | 32.4 µM (inactive) | 35.8 µM (inactive) | 80.9 µM (inactive) | 53.3 µM (inactive) | 41.6 µM (inactive) | 28.1 µM (inactive) | 36.1 µM (inactive) | 21.2 µM (inactive) | 57.9 µM (inactive) | 44.9 µM (inactive) | 28.6 µM (inactive) | 30.6 µM (inactive) | 37.6 µM (inactive) | 70.1 µM (inactive) | 35.6 µM (inactive)
COc1cccc2c1C(=O)c1c(O)c3c(c(O)c1C2=O)C[C@@](O)(C(C)=O)C[C@@H]3OC1CC([N+]([O-])(Cc2ccccc2)Cc2ccccc2)C(O)C(C)O1 (stereo partly drawn) | 1.62 µM (inactive) | – | 1.52 µM (inactive) | 1.7 µM (inactive) | 1.55 µM (inactive) | 1.48 µM (inactive) | 1.02 µM (active) | 1.79 µM (inactive) | 1.26 µM (inactive) | – | 1.98 µM (inactive) | 0.179 µM (active) | 1.24 µM (inactive) | 1.71 µM (inactive) | 1.47 µM (inactive) | 1.27 µM (inactive)
CN1C(=O)C(=O)c2cc3c(c4c2c1cc1ccccc14)OCO3 [CEPHARADIONE A] | 49.1 µM (inactive) | 15.6 µM (inactive) | 34.4 µM (inactive) | 27.2 µM (inactive) | 39.4 µM (inactive) | 18.3 µM (inactive) | 23 µM (inactive) | 48.8 µM (inactive) | 45.6 µM (inactive) | 40.5 µM (inactive) | 46.7 µM (inactive) | 7.5 µM (inactive) | 43.4 µM (inactive) | 51.5 µM (inactive) | 16.9 µM (inactive) | 20.2 µM (inactive)
O=C1CCCN(c2ccccc2)N1 | > 100 µM (inactive) | > 100 µM (inactive) | > 100 µM (inactive) | > 100 µM (inactive) | > 100 µM (inactive) | > 100 µM (inactive) | > 100 µM (inactive) | > 100 µM (inactive) | > 100 µM (inactive) | > 100 µM (inactive) | > 100 µM (inactive) | > 100 µM (inactive) | > 100 µM (inactive) | > 100 µM (inactive) | > 100 µM (inactive) | > 100 µM (inactive)
CC(C)Cc1cc(CCC(=O)Nc2ccccc2[N+](=O)[O-])nc(NC#N)n1 | > 100 µM (inactive) | > 100 µM (inactive) | > 100 µM (inactive) | > 100 µM (inactive) | > 100 µM (inactive) | > 100 µM (inactive) | > 100 µM (inactive) | > 100 µM (inactive) | > 100 µM (inactive) | > 100 µM (inactive) | – | > 100 µM (inactive) | > 100 µM (inactive) | > 100 µM (inactive) | > 100 µM (inactive) | > 100 µM (inactive)
Cc1ccc(/C=C/C(=O)CCN(C)C)cc1 | 17.7 µM (inactive) | 18.9 µM (inactive) | 18.2 µM (inactive) | 32 µM (inactive) | 18.3 µM (inactive) | 4.62 µM (inactive) | 16.3 µM (inactive) | 33.8 µM (inactive) | 16.9 µM (inactive) | 19.4 µM (inactive) | – | 21.4 µM (inactive) | 16.3 µM (inactive) | 14.7 µM (inactive) | 14.6 µM (inactive) | 18.3 µM (inactive)
C/C(=N/O)C1CC=C(S(=O)(=O)c2ccccc2)C1 (stereo not drawn) | > 100 µM (inactive) | – | > 100 µM (inactive) | > 100 µM (inactive) | > 100 µM (inactive) | > 100 µM (inactive) | > 100 µM (inactive) | > 100 µM (inactive) | > 100 µM (inactive) | > 100 µM (inactive) | > 100 µM (inactive) | > 100 µM (inactive) | > 100 µM (inactive) | > 100 µM (inactive) | > 10 µM (inactive) | > 100 µM (inactive)
COc1cc(C)c(O)c(C(=O)O)c1 | > 100 µM (inactive) | > 100 µM (inactive) | > 100 µM (inactive) | > 100 µM (inactive) | > 100 µM (inactive) | > 100 µM (inactive) | > 100 µM (inactive) | > 100 µM (inactive) | – | > 100 µM (inactive) | > 100 µM (inactive) | > 100 µM (inactive) | > 100 µM (inactive) | > 100 µM (inactive) | > 100 µM (inactive) | > 100 µM (inactive)
Cc1nc(N)sc1C(=O)/C=C\c1ccc2c(c1)OCO2 | > 100 µM (inactive) | > 100 µM (inactive) | > 100 µM (inactive) | > 100 µM (inactive) | > 100 µM (inactive) | > 100 µM (inactive) | > 100 µM (inactive) | > 100 µM (inactive) | > 100 µM (inactive) | > 100 µM (inactive) | > 100 µM (inactive) | > 100 µM (inactive) | > 100 µM (inactive) | > 100 µM (inactive) | > 100 µM (inactive) | > 100 µM (inactive)
Cc1cc(C)c(C2[C@H]3C(=O)N(c4ccc(Cc5ccc(N6C(=O)[C@@H]7ON(c8ccccc8)C(c8c(C)cc(C)cc8C)[C@@H]7C6=O)cc5)cc4)C(=O)[C@H]3ON2c2ccccc2)c(C)c1 (stereo partly drawn) | > 100 µM (inactive) | > 100 µM (inactive) | > 100 µM (inactive) | > 100 µM (inactive) | > 100 µM (inactive) | > 100 µM (inactive) | > 100 µM (inactive) | > 100 µM (inactive) | > 100 µM (inactive) | > 100 µM (inactive) | > 100 µM (inactive) | > 100 µM (inactive) | > 100 µM (inactive) | > 100 µM (inactive) | > 100 µM (inactive) | > 100 µM (inactive)
O=C1c2ccccc2C2CCC1c1ccccc12 (stereo not drawn) | 53.1 µM (inactive) | 19.6 µM (inactive) | 29.9 µM (inactive) | 23.6 µM (inactive) | 32.8 µM (inactive) | 31.6 µM (inactive) | 36.3 µM (inactive) | > 100 µM (inactive) | 64 µM (inactive) | 32.9 µM (inactive) | 32.1 µM (inactive) | 20.5 µM (inactive) | 39.5 µM (inactive) | 25.3 µM (inactive) | 34.6 µM (inactive) | 21.1 µM (inactive)
O=C1C(=Cc2ccc([N+](=O)[O-])o2)C(=O)N(CCc2ccccc2)S(=O)(=O)N1CCc1ccccc1 | > 100 µM (inactive) | 16.3 µM (inactive) | 33.5 µM (inactive) | 37 µM (inactive) | > 100 µM (inactive) | > 100 µM (inactive) | 18.7 µM (inactive) | > 100 µM (inactive) | 38.1 µM (inactive) | 14.6 µM (inactive) | 16.6 µM (inactive) | 14.3 µM (inactive) | > 100 µM (inactive) | 63 µM (inactive) | 16.9 µM (inactive) | 45.3 µM (inactive)
COc1cc2c[n+](C)c3c4cc(OC)c(OC)cc4c(OCCCCCCCCOc4cc5c6cc(OC)c(OC)cc6c[n+](C)c5c5cc(OC)c(OC)cc45)cc3c2cc1OC | > 100 µM (inactive) | > 100 µM (inactive) | 67.9 µM (inactive) | 8.71 µM (inactive) | 80 µM (inactive) | 72.8 µM (inactive) | > 100 µM (inactive) | > 100 µM (inactive) | 51.4 µM (inactive) | > 100 µM (inactive) | > 100 µM (inactive) | 4.28 µM (inactive) | 12.9 µM (inactive) | > 100 µM (inactive) | > 100 µM (inactive) | > 100 µM (inactive)

— ChEMBL document CHEMBL1201862, “PubChem BioAssay data set” (2004)
